Experimental data reported in PubChem BioAssay AID1963856 (Molecular Pharmacology Branch, DTP, NCI, 2024).

System: LG0567-F671-PDC KRAS tumor spheroid viability
Test: Anticancer human tumor LG0567-F671-PDC patient-derived lung adenocarcinoma cell line growth inhibition [KRAS2]
Conditions: spheroids with HUVEC and MSC; for viability, T/C: stronger effect = lower value
In short: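 KRAS-mutant tumor cells were grown as spheroids with HUVEC endothelial cells and human MSCs as stroma. Targeted agents were tested alone and with KRAS pathway inhibitors. Doses started at or near clinical Cmax, or 10 microM, descending half-log.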

[1] = curve of first compound, second compound 0.1 µM
[2] = curve of first compound, second compound 0.316 µM
[3] = curve of first compound, second compound 1 µM
[4] = curve of first compound, second compound 3.16 µM
[5] = second compound 0.1 µM, first compound 0.0316 µM
[6] = second compound 0.1 µM, first compound 0.1 µM
[7] = second compound 0.1 µM, first compound 0.316 µM
[8] = second compound 0.1 µM, first compound 1 µM
[9] = second compound 0.1 µM, first compound 3.16 µM
[10] = second compound 0.1 µM, first compound 10 µM
[11] = second compound 0.316 µM, first compound 0.0316 µM
[12] = second compound 0.316 µM, first compound 0.1 µM
[13] = second compound 0.316 µM, first compound 0.316 µM
[14] = second compound 0.316 µM, first compound 1 µM
[15] = second compound 0.316 µM, first compound 3.16 µM
[16] = second compound 0.316 µM, first compound 10 µM
[17] = second compound 1 µM, first compound 0.0316 µM
[18] = second compound 1 µM, first compound 0.1 µM
[19] = second compound 1 µM, first compound 0.316 µM
[20] = second compound 1 µM, first compound 1 µM
[21] = second compound 1 µM, first compound 3.16 µM
[22] = second compound 1 µM, first compound 10 µM
[23] = second compound 3.16 µM, first compound 0.0316 µM
[24] = second compound 3.16 µM, first compound 0.1 µM
[25] = second compound 3.16 µM, first compound 0.316 µM
[26] = second compound 3.16 µM, first compound 1 µM
[27] = second compound 3.16 µM, first compound 3.16 µM
[28] = second compound 3.16 µM, first compound 10 µM
[29] = curve of first compound, second compound 10 µM
[30] = second compound 10 µM, first compound 0.0316 µM
[31] = second compound 10 µM, first compound 0.1 µM
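Note: drug exposure lasted seven days after spheroids formed for three days.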
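Throughout, for viability, T/C: 100% = DMSO vehicle control viability.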

COC(=O)c1ccc2c(C(=Nc3ccc(N(C)C(=O)CN4CCN(C)CC4)cc3)c3ccccc3)c(O)[nH]c2c1 + C=CC(=O)N1CCN(c2nc(OCC3CCCN3C)nc3c2CCN(c2cccc4cccc(C)c24)C3)CC1CC#N
IC50 (curve of first compound, second compound 0.0316 µM): < 31.6 nM
IC50 [1]: < 31.6 nM
IC50 [2]: < 31.6 nM
IC50 [3]: < 31.6 nM
IC50 [4]: < 31.6 nM
viability, T/C (second compound 0.0316 µM, first compound 0.0316 µM): 23.7%
viability, T/C (second compound 0.0316 µM, first compound 0.1 µM): 23.2%
viability, T/C (second compound 0.0316 µM, first compound 0.316 µM): 21.9%
viability, T/C (second compound 0.0316 µM, first compound 1 µM): 30.4%
viability, T/C (second compound 0.0316 µM, first compound 3.16 µM): 26.8%
viability, T/C (second compound 0.0316 µM, first compound 10 µM): 31.9%
viability, T/C [5]: 21.6%
viability, T/C [6]: 20.4%
viability, T/C [7]: 23.4%
viability, T/C [8]: 27.4%
viability, T/C [9]: 26.1%
viability, T/C [10]: 27%
viability, T/C [11]: 23.2%
viability, T/C [12]: 21.1%
viability, T/C [13]: 22.7%
viability, T/C [14]: 27.8%
viability, T/C [15]: 27.7%
viability, T/C [16]: 28.3%
viability, T/C [17]: 26.6%
viability, T/C [18]: 26.3%
viability, T/C [19]: 27.6%
viability, T/C [20]: 28.8%
viability, T/C [21]: 23.9%
viability, T/C [22]: 23.4%
viability, T/C [23]: 17.9%
viability, T/C [24]: 29.2%
viability, T/C [25]: 13.2%
viability, T/C [26]: 0.34%
viability, T/C [27]: 0.12%
viability, T/C [28]: 0.93%

CN(C)C/C=C/C(=O)Nc1cc2c(Nc3ccc(F)c(Cl)c3)ncnc2cc1O[C@H]1CCOC1 + CNCc1ccccc1-c1csc(C(C)Nc2nc(C)nc3cc(OC)c(OC)cc23)c1
IC50 [1]: 24.8 nM
IC50 [2]: 17.1 nM
IC50 [3]: 6.76 nM
IC50 [4]: 0.404 nM
IC50 [29]: < 0.316 nM
viability, T/C (second compound 0.1 µM, first compound 0.000316 µM): 88%
viability, T/C (second compound 0.1 µM, first compound 0.001 µM): 71.5%
viability, T/C (second compound 0.1 µM, first compound 0.00316 µM): 65.5%
viability, T/C (second compound 0.1 µM, first compound 0.01 µM): 49%
viability, T/C [5]: 46.9%
viability, T/C [6]: 51.3%
viability, T/C (second compound 0.316 µM, first compound 0.000316 µM): 77.9%
viability, T/C (second compound 0.316 µM, first compound 0.001 µM): 72.8%
viability, T/C (second compound 0.316 µM, first compound 0.00316 µM): 59.7%
viability, T/C (second compound 0.316 µM, first compound 0.01 µM): 52%
viability, T/C [11]: 43.5%
viability, T/C [12]: 53.1%
viability, T/C (second compound 1 µM, first compound 0.000316 µM): 54.7%
viability, T/C (second compound 1 µM, first compound 0.001 µM): 61.3%
viability, T/C (second compound 1 µM, first compound 0.00316 µM): 49.4%
viability, T/C (second compound 1 µM, first compound 0.01 µM): 48.2%
viability, T/C [17]: 44.2%
viability, T/C [18]: 37.4%
viability, T/C (second compound 3.16 µM, first compound 0.000316 µM): 54.9%
viability, T/C (second compound 3.16 µM, first compound 0.001 µM): 31.7%
viability, T/C (second compound 3.16 µM, first compound 0.00316 µM): 0.31%
viability, T/C (second compound 3.16 µM, first compound 0.01 µM): 0.13%
viability, T/C [23]: 0.63%
viability, T/C [24]: 0.28%
viability, T/C (second compound 10 µM, first compound 0.000316 µM): 0.28%
viability, T/C (second compound 10 µM, first compound 0.001 µM): 0.22%
viability, T/C (second compound 10 µM, first compound 0.00316 µM): 0.1%
viability, T/C (second compound 10 µM, first compound 0.01 µM): 0.38%
viability, T/C [30]: 1.14%
viability, T/C [31]: 0.66%

COc1cc(Nc2ncc3c(n2)-c2ccc(Cl)cc2C(c2c(F)cccc2OC)=NC3)ccc1C(=O)O + CC1OCC2(CCN(c3cnc(Sc4ccnc(N)c4Cl)c(N)n3)CC2)C1N
IC50 [1]: 204 nM
IC50 [2]: < 31.6 nM
IC50 [3]: < 31.6 nM
IC50 [4]: < 31.6 nM
IC50 [29]: < 31.6 nM
viability, T/C [5]: 58.7%
viability, T/C [6]: 49.6%
viability, T/C [7]: 45.7%
viability, T/C [8]: 47.1%
viability, T/C [9]: 40.3%
viability, T/C [10]: 31.7%
viability, T/C [11]: 25.7%
viability, T/C [12]: 26%
viability, T/C [13]: 21.7%
viability, T/C [14]: 22.8%
viability, T/C [15]: 23.8%
viability, T/C [16]: 18.8%
viability, T/C [17]: 17.6%
viability, T/C [18]: 19.2%
viability, T/C [19]: 18.1%
viability, T/C [20]: 18.5%
viability, T/C [21]: 17.2%
viability, T/C [22]: 14.9%
viability, T/C [23]: 12.1%
viability, T/C [24]: 8.31%
viability, T/C [25]: 8.93%
viability, T/C [26]: 8.9%
viability, T/C [27]: 4.29%
viability, T/C [28]: 5.34%
viability, T/C [30]: 4.83%
viability, T/C [31]: 3.93%
viability, T/C (second compound 10 µM, first compound 0.316 µM): 3.68%
viability, T/C (second compound 10 µM, first compound 1 µM): 3.68%
viability, T/C (second compound 10 µM, first compound 3.16 µM): 3.65%
viability, T/C (second compound 10 µM, first compound 10 µM): 4.21%

O=C(c1cc(Cc2n[nH]c(=O)c3ccccc23)ccc1F)N1CCN(C(=O)C2CC2)CC1
viability, T/C (compound 0.0316 µM): 103% [middle of 5 runs]
viability, T/C (compound 0.1 µM): 99.1% [middle of 5 runs]
viability, T/C (compound 0.316 µM): 98.6% [middle of 5 runs]
viability, T/C (compound 1 µM): 93.1% [middle of 5 runs]
viability, T/C (compound 3.16 µM): 93.5% [middle of 5 runs]
viability, T/C (compound 10 µM): 97.9% [middle of 5 runs]
IC50 (curve of compound): > 10000 nM
